Experimental data: patent US4391978A, “Phenyl-quinolizidines” (Hoffmann-La Roche Inc., priority 1980, dated 1983)
Where a name gives a salt, the structure may show the parent alone. Read-outs that look alike come from different tables or passages of the source.

What was measured:
[1] = molecular target: T1, receptor, calf striatum ([^3 H]-spiroperidol) (Bos taurus, UniProt P20288); test: Spiroperidol-Binding Test (in vitro)
T1 construct: calf striatum was used as the receptor; from tissue; host or cells: calf striatum
T1 sequence (P20288 whole entry): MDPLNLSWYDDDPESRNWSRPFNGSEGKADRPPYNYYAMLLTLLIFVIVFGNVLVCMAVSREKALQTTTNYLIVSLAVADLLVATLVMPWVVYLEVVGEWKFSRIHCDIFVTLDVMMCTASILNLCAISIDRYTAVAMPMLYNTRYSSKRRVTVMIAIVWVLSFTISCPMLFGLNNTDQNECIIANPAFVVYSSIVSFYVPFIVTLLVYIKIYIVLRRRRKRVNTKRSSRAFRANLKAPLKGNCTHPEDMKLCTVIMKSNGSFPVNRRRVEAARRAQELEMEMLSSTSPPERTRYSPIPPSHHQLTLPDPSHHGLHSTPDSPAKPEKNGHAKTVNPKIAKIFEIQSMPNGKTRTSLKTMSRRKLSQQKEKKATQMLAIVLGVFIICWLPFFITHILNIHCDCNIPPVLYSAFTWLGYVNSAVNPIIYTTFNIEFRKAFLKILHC

[2] = tested on: rats trained to jump up on a vertical isolated pole; test: Pole Climbing Test (rat): inhibition of conditioned (BCR) and unconditioned (BUR) reaction; format: in vivo; conditions: ip; for ED50: inhibition of conditioned reaction in 50% of the animals, observation time 6 hours; for ED10: inhibition of unconditioned reaction, ED10, i.p.
Method: "Pole Climbing" Test (rat)
For this experimental procedure there was used per dosage a group of 10 rats trained to jump up on a vertical isolated pole in the experimental cage, to escape an electroshock (unconditioned stimulus) produced via the lattice floor immediately after an acoustic signal (conditioned stimulus). The inhibition of the conditioned reaction in the case of 50% of the animals during an observation time of 6 hours is determined by the parameter ED 50 BCR, the inhibition of the unconditioned reaction is determined by the parameter ED 10 BUR.

[3] = tested on: apomorphine-induced vomiting (dog); test: Antiemetic Activity (dog): apomorphine-induced vomiting; format: in vivo, dog (Beagle hounds); conditions: Canis lupus familiaris, po, 1 hour before apomorphine hydrochloride 0.1 or 0.3 mg/kg s.c., 50% of animals protected, read-out: Anti-apomorphine emesis ED50 p.o.
[4] = 50% detachment of specific binding of [^3 H]-spiroperidol, calf striatum, in vitro, read-out: Spiroperidol-Binding IC50

| Compound | IC50 [1] [µM] | ED50 [2] [mg/kg] | ED10 [2] [mg/kg] | IC50 [1, 4] [µM] | ED50 [3] [mg/kg] |
| --- | --- | --- | --- | --- | --- |
| O=c1[nH]c2cc(I)ccc2n1[C@@H]1CCN2C[C@@H](c3ccccc3F)CC[C@@H]2C1 (relative stereo) [rac-1-[(9aβH)-7β-(o-fluorophenyl)-octahydro-2H-quinolizin-2α-yl]-5-iodo-2-benzimidazolinone] | 0.0086 | 0.1 | 0.055 | – | – |
| O=C(c1ccc(F)cc1)[C@@H]1CCN2C[C@@H](c3ccccc3Cl)CC[C@@H]2C1 (relative stereo) [rac-[(9aβH)-7β-(o-chlorophenyl)-octahydro-2H-quinolizin-2α-yl]p-fluorophenylketone] | – | 3 | 3 | 0.011 | – |
| O=C1CCCN1C(=O)N[C@@H]1CCN2C[C@@H](c3ccccc3Cl)CC[C@@H]2C1 (relative stereo) [rac-N-((9aβH)-7β-(o-chlorophenyl)octahydro-2H-quinolizin-2α-yl)-2-oxo-1-pyrrolidinecarboxamide] | – | 23 | > 30 | – | – |
| COc1cc(N)c(Cl)cc1C(=O)N[C@@H]1CCN2C[C@@H](c3ccccc3Cl)CC[C@@H]2C1 (relative stereo) [rac-4-amino-5-chloro-N-[(9aβH)-7β-(o-chlorophenyl)-octahydro-2H-quinolizin-2α-yl]-o-anisamide] | – | 12.5 | 12.5 | 0.03 | 2.3 |
| N#Cc1ccc2c(c1)[nH]c(=O)n2[C@@H]1CCN2C[C@@H](c3ccccc3F)CC[C@@H]2C1 (relative stereo) [rac-1-[(9aβH)--7β-(o-Fluorophenyl)-octahydro-2H--quinolizin-2α-yl]-5-cyano-2-benzimidazolinone.HCl] | 0.05 | 0.65 | 1 | – | – |
| O=C(N[C@@H]1CCN2C[C@@H](c3ccccc3Cl)CC[C@@H]2C1)c1ccc(F)cc1 (relative stereo) [rac-N-((9aβH)-7β-(o-chlorophenyl)octahydro-2H-quinolizin-2α-yl)-p-fluorobenzamide] | – | 12 | 5.5 | 0.067 | – |
| O=C(N[C@@H]1CCN2C[C@@H](c3ccccc3Cl)CC[C@@H]2C1)c1cccs1 (relative stereo) [rac-N-((9aβH)-7β-(o-chlorophenyl)octahydro-2H-quinolizin-2α-yl)-2-thiophenecarboxamide] | – | 18 | 25 | 0.123 | – |
| O=c1[nH]c2cc(Br)ccc2n1[C@@H]1CCN2C[C@@H](c3ccccc3F)CC[C@@H]2C1 (relative stereo) [rac-1-[(9aβH)--7β-(o-Fluorophenyl)-octahydro-2H--quinolizin-2α-yl]-5-bromo-2-benzimidazolinone.HCl] | 0.0038 | 0.08 | 0.1 | – | – |
| CCS(=O)(=O)c1ccc(OC)c(C(=O)N[C@@H]2CCN3C[C@@H](c4ccccc4Cl)CC[C@@H]3C2)c1 (relative stereo) [rac-N-((9aβH)-7β-(o-chlorophenyl)octahydro-2H-quinolizin-2α-yl)-5-(ethylsulfonyl)-o-anisamide] | – | 10 | 10 | 0.135 | 0.38 |
| O=C(N[C@@H]1CCN2C[C@@H](c3ccccc3Cl)CC[C@@H]2C1)C1CC1 (relative stereo) [rac-N-[(9aβH)-7β-(o-chlorophenyl)-octahydro-2H-quinolizin-2α-yl]-cyclopropanecarboxamide] | – | 6 | 5.5 | 0.55 | – |
| COc1ccc(S(N)(=O)=O)cc1C(=O)N[C@@H]1CCN2C[C@@H](c3ccccc3Cl)CC[C@@H]2C1 (relative stereo) [rac-N-((9aβH)-7β-(o-chlorophenyl)octahydro-2H-quinolizin-2α-yl)-5-sulfamoyl-o-anisamide] | – | – | – | – | 0.8 |
